# US12115167B2 (Woolsey Pharmaceuticals, Inc., priority 2022, dated 2024)
# Counter-ions that a name gives are not always drawn.
# Assay: Stability of fasudil in 0.05M citrate buffer with and without EDTA, 60° C. for 36 days
# Format: physicochemical
# Conditions: 60° C. 36 days, in words
# Method: Samples were stored at 60° C. for 36 days.
structure (smiles),measurement,value
"O=S(=O)(c1cccc2cnccc12)N1CCCNCC1 [fasudil, hexahydro-1-(5-isoquinolinesulfonyl)-1H-1,4-diazepine monohydrochloride hemihydrate]",compatibility with EDTA,compatible with EDTA in citrate buffer
